Source: US20180362654A1, “Methods for Reducing or Preventing Growth of Tumors Resistant to EGFR and/or ErbB3 Blockade” (Regeneron Pharmaceuticals, Inc., priority 2015, published 2018)
One block for each compound: values may come before it.

What was measured:
ERK = ERK activation by western blot (phospho-ERK); format: cell-based, human; conditions: REGN1400 5 μg/ml, REGN955 10 μg/ml, AZD4547 25 nM
Experimental: (§1) For analysis of cell signaling by western blot, tumor cells were treated with the following reagents: ErbB3 blocking REGN1400, EGFR blocking antibody REGN955, MEK inhibitor GSK1120212 (Selleckchem), FGFR TKI AZD4547 (Selleckchem), MET TKI PHA665752 (Sigma), PI3K inhibitor BYL719, human NRG1 (R&D Systems), human EGF (R&D Systems). Following treatment, cell lysates were subjected to western blot with the following antibodies: phospho-ErbB3 (Cell Signaling Technology (CST), cat. #4561), EGFR (CST, cat. #2646), phospho-EGFR (CST, cat. #2234), Akt (CST, cat. #9272), phospho-Akt (CST, cat. #4060), ERK (CST, cat. #4695), phospho-ERK (CST, cat. #4370), MET (CST, cat. #8198), phospho-MET (CST, cat. #3077), ErbB3 (CST, cad.#4754), phospho-FGFR (CST, cat. #3476).

FGFR3 = FGFR3 phosphorylation by anti-phosphotyrosine immunoprecipitation and western blot; format: cell-based, human; conditions: FaDu V2 cells; 25 nM AZD4547; 1 hour
Experimental: FIGS. 4A-4F provide evidence that FGFR3 is activated in FaDu resistant variant cell lines and maintains ERK signaling upon EGFR blockade. […] Active RTKs of note are boxed and labeled. The unlabeled spots on the corners of the membranes are positive controls. […] The presence of FGFR3 and Src in the immunoprecipitates was assessed by western blot. […] Following treatment, cell lysates were subjected to western blot with antibodies against phospho-ERK, ERK, phospho-MET and MET. […] Following treatment, cell lysates were subjected to immunoprecipitation with anti-phosphotyrosine antibody 4G10 conjugated to agarose beads. The presence of FGFR3 and Src in the immunoprecipitates was assessed by western blot. […] Following treatment, cell lysates were subjected to western blot with antibodies against phospho-ERK, ERK, phospho-AKT and AKT.
To assess the tyrosine phosphorylation status of FGFR3-TACC3 fusion proteins in FaDu V1 and V2 cell lines, cells growing in 10 cm dishes were lysed in 1 ml of buffer (150 mM NaCl/20 mM Tris, pH 7.5/1% Triton X-100) containing Halt Protease and Phosphatase Inhibitor Cocktail (Thermo Scientific). […]

AKT = AKT activation by western blot (phospho-AKT); format: cell-based, human; conditions: REGN1400 5 μg/ml, REGN955 10 μg/ml, AZD4547 25 nM
Experimental: as §1

NCI-H1975 cells = experiment: Tumor cell growth assay (MTS), NCI-H1975 cells expressing FGFR3-TACC3 fusion proteins; format: cell-based, human; conditions: 72 hours, 50 nM AZD9291
Experimental: (§2) The bar graphs show the relative cell growth in each treatment group, as determined by MTS assay. Error bars show the standard deviation, n=8. […] The bar graphs show the relative cell growth in each treatment group, as determined by MTS assay. Error bars show the SD, n=8. FIGS. 11C-11D respectively show SNU1076 or Detroit 562 cells expressing wild-type FGFR3 or FGFR3-TACC3 fusion proteins that were grown for 72 hours in the presence of vehicle or 5 μM PI3K inhibitor BYL719. The bar graphs show the relative cell growth in each treatment group, as determined by MTS assay. Error bars show the standard deviation, n=8. […] Cell lysates were prepared and subjected to western blot with antibodies against phospho-ERK, ERK, phospho-AKT, or AKT.
(§3) To assess tumor cell growth, 2-3,000 cells were plated in 96-well plates (n=8 replicate wells per treatment group) in serum-containing medium. The day after plating, the baseline (0 hour) cell number was determined by MTS assay using the CellTiter96 Aqueous One Solution Cell Proliferation Assay (Promega). […] At 72 hours, the final cell number was determined by MTS assay. The relative cell growth for each treatment group was determined by subtracting the baseline MTS reading from the final MTS reading. […]

SNU1076 cells = experiment: Tumor cell growth assay (MTS), SNU1076 cells expressing FGFR3-TACC3 fusion proteins; format: cell-based, human; conditions: 72 hours, 5 μM BYL719
Experimental: as §2, §3

Detroit 562 cells = experiment: Tumor cell growth assay (MTS), Detroit 562 cells expressing FGFR3-TACC3 fusion proteins; format: cell-based, human; conditions: 72 hours, 5 μM BYL719
Experimental: as §2, §3

MET = target: T1, MET (Homo sapiens, UniProt P08581); experiment: MET phosphorylation by western blot; format: cell-based; conditions: FaDu V2 cells; 100 nM PHA665752; 30 minutes
T1 construct: Fadu V2 cells that were treated for 30 minutes with control antibody; endogenous in cells
T1 sequence (P08581 25-1390): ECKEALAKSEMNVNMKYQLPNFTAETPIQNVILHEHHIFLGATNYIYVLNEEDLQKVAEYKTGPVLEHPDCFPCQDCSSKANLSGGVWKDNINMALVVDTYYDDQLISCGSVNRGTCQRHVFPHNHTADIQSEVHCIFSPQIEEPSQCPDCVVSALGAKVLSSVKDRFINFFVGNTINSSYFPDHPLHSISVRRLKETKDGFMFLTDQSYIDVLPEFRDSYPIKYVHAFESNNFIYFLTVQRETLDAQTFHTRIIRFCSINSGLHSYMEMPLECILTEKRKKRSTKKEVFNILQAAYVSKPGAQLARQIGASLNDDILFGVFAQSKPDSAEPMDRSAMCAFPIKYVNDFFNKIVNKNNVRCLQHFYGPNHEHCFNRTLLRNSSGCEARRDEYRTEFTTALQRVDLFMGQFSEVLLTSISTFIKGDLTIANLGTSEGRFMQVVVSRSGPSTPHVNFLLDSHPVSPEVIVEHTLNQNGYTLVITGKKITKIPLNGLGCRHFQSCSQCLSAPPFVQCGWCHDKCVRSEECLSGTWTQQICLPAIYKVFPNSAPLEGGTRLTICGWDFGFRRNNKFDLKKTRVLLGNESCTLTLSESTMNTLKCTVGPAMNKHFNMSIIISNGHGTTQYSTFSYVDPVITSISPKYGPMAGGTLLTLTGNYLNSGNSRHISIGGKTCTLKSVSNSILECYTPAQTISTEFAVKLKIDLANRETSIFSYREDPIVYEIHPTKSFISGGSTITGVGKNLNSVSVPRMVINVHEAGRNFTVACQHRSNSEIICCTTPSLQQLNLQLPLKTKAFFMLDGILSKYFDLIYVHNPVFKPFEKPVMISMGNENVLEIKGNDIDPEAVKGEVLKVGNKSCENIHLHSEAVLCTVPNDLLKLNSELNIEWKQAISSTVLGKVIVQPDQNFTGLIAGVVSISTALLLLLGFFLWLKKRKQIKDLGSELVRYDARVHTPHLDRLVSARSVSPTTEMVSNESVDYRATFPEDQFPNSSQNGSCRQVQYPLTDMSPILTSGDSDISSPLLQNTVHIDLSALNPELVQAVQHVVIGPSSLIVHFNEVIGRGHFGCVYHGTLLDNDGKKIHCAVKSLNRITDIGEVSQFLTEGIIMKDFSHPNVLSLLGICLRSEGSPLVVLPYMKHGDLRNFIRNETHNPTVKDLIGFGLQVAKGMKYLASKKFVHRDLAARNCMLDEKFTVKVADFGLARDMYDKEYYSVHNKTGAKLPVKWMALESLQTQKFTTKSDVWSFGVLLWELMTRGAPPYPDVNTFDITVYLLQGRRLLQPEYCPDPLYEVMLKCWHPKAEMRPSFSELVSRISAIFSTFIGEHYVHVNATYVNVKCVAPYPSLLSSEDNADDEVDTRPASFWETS
Excerpt: Following treatment, cell lysates were subjected to western blot with antibodies against phospho-ERK, ERK, phospho-MET and MET. […] Following treatment, cell lysates were subjected to western blot with the following antibodies: phospho-ErbB3 (Cell Signaling Technology (CST), cat. #4561), EGFR (CST, cat. #2646), phospho-EGFR (CST, cat. #2234), Akt (CST, cat. #9272), phospho-Akt (CST, cat. #4060), ERK (CST, cat. #4695), phospho-ERK (CST, cat. #4370), MET (CST, cat. #8198), phospho-MET (CST, cat. #3077), ErbB3 (CST, cad.#4754), phospho-FGFR (CST, cat. #3476).

[1] = FaDu V2 cells, GSK1120212 100 nM, PHA665752 100 nM

Compound: COc1cc(CCc2cc(NC(=O)c3ccc(N4CC(C)NC(C)C4)cc3)n[nH]2)cc(OC)c1 (stereo not shown) [AZD4547]
inhibition of ERK activation (ERK; FaDu V1 cells): either no effect or a partial effect
inhibition of ERK activation (ERK; [1]): either no effect or a partial effect
inhibition of FGFR3 phosphorylation (FGFR3): completely blocked FGFR3 phosphorylation
inhibition of AKT activation (AKT; FaDu V1 cells): no effect on AKT activation
inhibition of AKT activation (AKT; FaDu V2 cells, GSK1120212 100 nM): no effect on AKT activation

Compound: C=CC(=O)Nc1cc(Nc2nccc(-c3cn(C)c4ccccc34)n2)c(OC)cc1N(C)CCN(C)C [AZD9291]
growth inhibition in cells expressing FGFR3-TACC3 fusion proteins (NCI-H1975 cells): promote resistance

Compound: Cc1nc(NC(=O)N2CCC[C@H]2C(N)=O)sc1-c1ccnc(C(C)(C)C(F)(F)F)c1 [BYL719, alpelisib]
growth inhibition in cells expressing FGFR3-TACC3 fusion proteins (SNU1076 cells): neither of the FGFR3-TACC3 fusion proteins was able to confer substantial resistance
growth inhibition in cells expressing FGFR3-TACC3 fusion proteins (Detroit 562 cells): neither of the FGFR3-TACC3 fusion proteins was able to confer substantial resistance

inhibition of MET phosphorylation (MET): completely blocking MET phosphorylation
Compound: Cc1[nH]c(/C=C2\C(=O)Nc3ccc(S(=O)(=O)Cc4c(Cl)cccc4Cl)cc32)c(C)c1C(=O)N1CCC[C@@H]1CN1CCCC1 [PHA665752]
inhibition of ERK activation (ERK; [1]): did not inhibit ERK activation
